Test results published in paper PMC3756936 (Journal of medicinal chemistry, 2013).
Like-named read-outs stand apart in the source and are kept apart here.

How the values were obtained:
[1] = tested on: COS; details: African green monkey
[2] = tested on: CHO; details: Chinese hamster
[3] = tested on: HEK293 cells; details: human
[4] = biological target: T1, CpIMPDH (Cryptosporidium parvum, UniProt Q8T6T2); test: biochemical; assay type: biochemical; details: for inhibition mechanism with respect to NAD+: best fit; for inhibition mechanism with respect to NAD+ / inhibition mechanism with respect to IMP: in words
T1 sequence (Q8T6T2 1-400): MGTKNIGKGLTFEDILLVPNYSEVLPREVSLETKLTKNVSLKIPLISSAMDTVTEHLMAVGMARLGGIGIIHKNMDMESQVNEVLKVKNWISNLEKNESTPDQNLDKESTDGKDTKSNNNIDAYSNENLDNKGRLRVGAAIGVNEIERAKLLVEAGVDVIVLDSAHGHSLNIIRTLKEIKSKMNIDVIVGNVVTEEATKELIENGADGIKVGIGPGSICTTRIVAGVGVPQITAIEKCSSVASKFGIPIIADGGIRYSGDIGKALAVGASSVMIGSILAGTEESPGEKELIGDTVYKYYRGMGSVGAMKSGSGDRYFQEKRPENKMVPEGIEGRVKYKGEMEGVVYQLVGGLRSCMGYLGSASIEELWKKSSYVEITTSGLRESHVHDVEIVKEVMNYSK

[5] = tested on: HeLa; details: human
[6] = Mouse liver microsomal stability; assay type: in vitro ADME; details: liver microsomes, 37 °C
[7] = tested on: Toxo/CpIMPDH (T. gondii strain that relies on CpIMPDH); test: microbe, parasite or virus in culture; assay type: cell-based, Toxoplasma gondii; details: for EC50: Toxoplasma gondii, read-out: EC50 Toxo/CpIMPDH

`COc1ccc(OC(C)C(=O)Nc2ccc3oc(-c4ccncc4)nc3c2)cc1` (stereo not drawn) [compound 44, 2-(4-methoxyphenoxy)-N-(2-(pyridine-4-yl)benzo[d]oxazol-5-yl)propionamide] showed an LD50 [1] of over 50 µM, an LD50 [2] of over 50 µM and an LD50 [3] of over 50 µM.

With `CC(Oc1ccc(Cl)cc1Cl)C(=O)Nc1ccc2oc(-c3ccncc3)nc2c1` (stereo not drawn) [compound 1] the Ki ([4]; Kis (nM), Substrate IMP) was 58 ± 5 nM, the Ki ([4]; Kis (nM), Substrate NAD) was 33 ± 8 nM and the “inhibition mechanism with respect to NAD+” value [4] was “competitive”. For the same compound, the “inhibition mechanism with respect to IMP” value [4] was “noncompetitive”.

For `CC(Oc1ccccc1Cl)C(=O)Nc1ccc2oc(-c3ccncc3)nc2c1` (stereo not drawn) [compound 41, 2-(2-chlorophenoxy)-N-(2-(pyridine-4-yl)benzo[d]oxazol-5-yl)propionamide], the LD50 [1] was over 50 µM, the LD50 [2] was over 50 µM and the LD50 [5] was over 50 µM. For the same compound, the LD50 [3] was ~ 12.5 μM.

In the case of `C[C@H](Oc1cccc(Cl)c1Cl)C(=O)Nc1ccc2oc(-c3ccncc3)nc2c1` [compound 55, (S)-2-(2,3-dichlorophenoxy)-N-(2-(pyridin-4-yl)benzo[d]oxazol-5-yl)propionamide], the half-life ([6]; t1/2 (min) + NADPH, + NADPH) is reported as at most 12 min and the half-life ([6]; t1/2 (min) − NADPH, − NADPH) is reported as at most 12 min.

In the case of `CC(Oc1cccc2ccccc12)C(=O)Nc1ccc2oc(-c3ccncc3)nc2c1` (stereo not drawn) [compound 48, 2-(naphthalene-1-yloxy)-N-(2-(pyridine-4-yl)benzo[d]oxazol-5-yl)propionamide], the “selectivity versus Toxo/WT” value [7] is reported as over 30 fold and the EC50 [7] is reported as at most 250 nM.

`C[C@H](Nc1cccc(Cl)c1Cl)C(=O)Nc1ccc2oc(-c3ccncc3)nc2c1` [15a, (S)-2-(2,3-dichlorophenylamino)-N-(2-(pyridine-4-yl)benzo[d]oxazol-5-yl) propionamide] gave an LD50 [1] of over 50 µM, an LD50 [2] of over 50 µM and an LD50 [3] of over 50 µM.

Compound `C[C@H](Oc1cccc(Cl)c1Cl)C(=O)Nc1ccc2oc(-c3cncs3)nc2c1` [compound 62, (S)-2-(2,3-dichlorophenoxy)-N-(2-(thiazol-5-yl)benzo[d]oxazol-5-yl)propionamide] has a half-life ([6]; t1/2 (min) + NADPH, + NADPH) of at most 12 min and a half-life ([6]; t1/2 (min) − NADPH, − NADPH) of at most 12 min.

Work on `C[C@H](Oc1cccc([N+](=O)[O-])c1Cl)C(=O)Nc1ccc2oc(-c3ccncc3)nc2c1` [compound 57, (S)-2-(2-chloro-3-nitrophenoxy)-N-(2-(pyridine-4-yl)benzo[d]oxazol-5-yl)propionamide] yielded an LD50 [1] of over 50 µM, an LD50 [2] of over 50 µM and an LD50 [3] of over 50 µM.

For `C[C@@H](C(=O)Nc1ccc2oc(-c3ccncc3)nc2c1)c1ccccc1` [compound 72, (R)-2-phenyl-N-(2-(pyridine-4-yl)benzo[d]oxazol-5-yl)propionamide], the Ki ([4]; Kis (nM), Substrate IMP) was 100 ± 20 nM, the Ki ([4]; Kis (nM), Substrate NAD) was 40 ± 10 nM and the “inhibition mechanism with respect to NAD+” value [4] was “competitive”. For the same compound, the “inhibition mechanism with respect to IMP” value [4] was “noncompetitive”.

In the case of `C[C@H](Oc1cccc(Cl)c1Cl)C(=O)Nc1ccc2nc(-c3ccncc3)oc2c1` [40a, (S)-2-(2,3-dichlorophenoxy)-N-(2-(pyridin-4-yl)benzo[d]oxazol-6-yl)propionamide], the LD50 [1] is reported as over 50 µM, the half-life ([6]; t1/2 (min) + NADPH, + NADPH) is reported as at most 12 min and the half-life ([6]; t1/2 (min) − NADPH, − NADPH) is reported as at most 12 min. It also gave an LD50 [2] of over 50 µM and an LD50 [3] of over 50 µM.

In the case of `C[C@H](Oc1cccc(Cl)c1Cl)C(=O)Nc1cc(Cl)c2oc(-c3ccncc3)nc2c1` [compound 68, (S)-N-(7-chloro-2-(pyridin-4-yl)benzo[d]oxazol-5-yl)-2-(2,3-dichlorophenoxy)propionamide], the Ki [4] is reported as 150 ± 30 nM, the Ki ([4]; Kis (nM), Substrate IMP) is reported as 210 ± 10 nM and the “inhibition mechanism with respect to NAD+” value [4] is reported as “competitive”. For the same compound, the “inhibition mechanism with respect to IMP” value [4] was “noncompetitive”.

For `C[C@H](Oc1cccc2ccccc12)C(=O)Nc1ccc2oc(-c3cncs3)nc2c1` [compound 63, (S)-2-(naphthalene-1-yloxy)-N-(2-(thiazol-5-yl)benzo[d]oxazol-5-yl)propionamide], the Ki ([4]; Kis (nM), Substrate IMP) was 1.6 ± 0.7 nM, the Ki ([4]; Kis (nM), Substrate NAD) was 0.9 ± 0.3 nM and the “inhibition mechanism with respect to NAD+” value [4] was “competitive”. The “inhibition mechanism with respect to IMP” value [4] was “noncompetitive”.

With `CC(Oc1cccc(Cl)c1Cl)C(=O)Nc1ccc2oc(-c3ccncc3)nc2c1` (stereo not drawn) [compound 46, 2-(2,3-dichlorophenoxy)-N-(2-(pyridine-4-yl)benzo[d]oxazol-5-yl)propionamide] the LD50 [1] was over 50 µM, the LD50 [2] was over 50 µM and the “selectivity versus Toxo/WT” value [7] was over 30 fold. The EC50 [7] was at most 250 nM and the LD50 [3] was over 50 µM.
